According to patent US7910568B2, “Derivatives of 4- or 5-aminosalicylic acid” (Antibe Therapeutics Inc., priority 2005, dated 2011):

Experiments:
[1] = tested on: leukocyte adherence to the vascular endothelium; test: Aspirin-induced leukocyte adherence to the vascular endothelium, intravital microscopy of mesenteric venules; type: in vivo, rat
Experimental: Leukocyte adherence was studied using intravital microscopy, as described in detail previously (Wallace et al., (1993) Am. J. Physiol. 265: 993-998, incorporated hereto by reference). Rats were anesthetized with pentobarbital sodium (60 mg/kg i.p.) and cautery incisions were made along the abdominal region. A tracheotomy was performed to facilitate breathing. The rats were placed in a supine position, and a segment of the mesentery was exteriorized through the abdominal incision. The mesentery was carefully placed over an optically clear viewing pedestal that allowed for trans-illumination of a 2-cm^2 segment of tissue. All exposed tissue was covered with saline-soaked gauze to minimize dehydration. The temperature of the pedestal was kept at 37° C. and the mesentery was superfused with warmed bicarbonate-buffered saline (pH 7.4). An intravital microscope (Nikon L25/0.35) and a ×10 eyepiece were used to observe the mesenteric microcirculation. Post-capillary venules with diameters ranging from 20 to 40 μm were selected for the study. A video camera mounted on the microscope (Panasonic™ digital 5000) projected the image onto a monitor, and the images were recorded for playback analysis using a videocassette recorder. Images of the mesenteric microcirculation were recorded 5 minutes prior to aspirin administration (baseline), at the time of aspirin administration (time 0-5) and every 15 minutes for 60 minutes. Leukocyte adherence was blindly quantified from videotaped images of the vessels made over 5-min periods as the number of leukocytes that remained stationary along the vessel wall for 30 s or more (expressed per 100 μm venule length). Groups of rats (at least 5 in each) were pretreated with Compound XXXV (130 mg/kg), Compound XXVII (100 mg/kg), mesalamine (50 mg/kg), or vehicle 60 min prior to aspirin (or vehicle) administration. These drugs were given intragastrically. In some experiments, rats were treated with glibenclamide (10 mg/kg i.p.) or vehicle 30 min prior to administration of these compounds.

[2] = tested on: COX-1 mRNA; test: TNBS-induced colitis in mice, colonic COX-1 mRNA by RT-PCR; type: in vivo; details: dose equimolar to 50 mg/kg mesalamine; FIG. 13
Experimental: (§1) The same model was used as described above. In this example, the effects of mesalamine (50 mg/kg) were compared to those of equimolar doses of Compound XXXV. In addition to measuring the severity of colitis by measuring disease activity score and MPO activity, tissues were processed for measurement of a number of genes for inflammatory cytokines and other mediators.
(§2) In particular, mRNA expression in mice of tumour necrosis factor-alpha (TNF-α), interferon gamma (IFN-γ), colonic interleukin (IL)-1, IL-2, IL-10, IL-12 p40, RANTES, cyclooxygenase (COX)-1, COX-2, constitutive endothelial nitric oxide synthase (eNOS), and inducible NOS (iNOS) was measured as described in Wallace et al. (1999) Gastroenterology 117: 557-566, incorporated herein by reference.
(§3) Briefly, reverse transcription-polymerase chain reaction (RT-PCR) was used to detect and quantify mRNA of the particular cytokine/chemokine/enzyme. Glyceraldehyde-3-phosphate dehydrogenase (GAPDH) was used as the “housekeeping gene” for mRNA expression (i.e., as an internal control). For each sample, the ratio of the amplification of the target gene to the amplification of GAPDH (expression of each is measured by performing densitometry on gels) was obtained. […]

[3] = tested on: iNOS mRNA; test: TNBS-induced colitis in mice, colonic iNOS mRNA by RT-PCR; type: in vivo; details: dose equimolar to 50 mg/kg mesalamine; FIG. 14
Experimental: as §1, §2, §3

[4] = tested on: myeloperoxidase (MPO) activity; test: TNBS-induced colitis in mice, colonic myeloperoxidase (MPO) activity as marker of granulocyte infiltration; type: in vivo
Experimental: A standard experimental animal model of colitis induced by intracolonic administration of 2,4,6-trinitrobenzene sulfonic acid (TNBS) to mice is used in the following example. A detailed description of this model has been published (Santucci et al. (2003) Gastroenterology 124:1381-94) and is incorporated herein by reference. Briefly, 6-8 week old Balb/c mice were given TNBS intracolonically at a dose of 1.5 mg in 0.1 mL of 30% ethanol. The mice were randomized to the various treatment groups (n=6 per group). Beginning one hour later and continuing every 12 h for 5 days, the mice were treated orally with vehicle (1% carboxymethylcellulose (CMC)), 5-ASA (mesalamine) (25, 50 or 75 mg/kg) or with equimolar doses of 2-hydroxy-5-amino-benzoic acid 4-(thioxo-5H-[1,2]dithiol-3-yl)-phenyl ester hydrochloride (Compound XXXV) (130 mg/kg), or with […] (100 mg/kg), 50% (66 mg/kg) and 25% (33 mg/kg) of that dose. The mice were evaluated (blindly) on the final day of the study for the presence of diarrhea and fecal occult blood, and their body weights were measured. […] After sacrifice, a sample of the colon was excised for measurement of myeloperoxidase (MPO) activity, as a marker of granulocyte infiltration. All results were compared to those obtained with healthy mice as well.

[5] = Viability of HT-29 human colon cancer cells, MTT assay; type: cell-based; details: HT-29 colon cancer cells, 72 h exposure, HT-29, MTT, read-out: Cell viability rate as a percent of the vehicle (DMSO)-treated cells
Experimental: HT-29 cells were grown in culture using standard methods. The cells were exposed to vehicle (DMSO), mesalamine or Compound XXXV. Concentrations ranging from 0.1 to 10 μM were tested, with each concentration tested in 6 wells. At the end of 72 h of exposure to the test drugs, cell viability was measured using the MTT [3-(4,5-dimethylthiaxol-2-yl)-2,5-diphenyltetrazolium bromide] assay (Carmichael et al. (1978) Cancer Res. 47, 936-942), incorporated herein by reference.

[6] = tested on: IL-10 mRNA; test: TNBS-induced colitis in mice, colonic IL-10 mRNA by RT-PCR; type: in vivo; details: dose equimolar to 50 mg/kg mesalamine; normalized to GAPDH, ratio to healthy controls
Experimental: as §1, §2, §3

[7] = H2S generation in buffer, liver homogenate and liver homogenate with PAG, sulfide sensitive electrode; type: in vitro ADME, rat; details: 1 mM compound, FIG. 21
[8] = tested on: COX-2 mRNA; test: TNBS-induced colitis in mice, colonic COX-2 mRNA by RT-PCR; type: in vivo; details: dose equimolar to 50 mg/kg mesalamine; FIG. 13
Experimental: as §1, §2, §3

[9] = tested on: TNF-α, IFN-γ, IL-1, IL-2, IL-12 p40, RANTES mRNA; test: TNBS-induced colitis in mice, colonic mRNA of pro-inflammatory cytokines and chemokines by RT-PCR; type: in vivo; details: dose equimolar to 50 mg/kg mesalamine; normalized to GAPDH, ratio to healthy controls
Experimental: as §1, §2, §3

## Nc1ccc(O)c(C(=O)Oc2ccc(-c3cc(=S)ss3)cc2)c1 [Compound XXXV, 5-Amino-2-hydroxy-benzoic acid 4-(5-thioxo-5H-[1,2]dithiol-3-yl)-phenyl ester]
[1]; glibenclamide 10 mg/kg i.p. 30 min prior to the compound, FIG. 19
  Aspirin-induced leukocyte adherence after glibenclamide pretreatment: reversed the inhibitory effect
[1]; intragastric pretreatment 60 min prior to aspirin (XXXV 130 mg/kg, mesalamine 50 mg/kg), glibenclamide 10 mg/kg i.p., FIG. 19
  Aspirin-induced leukocyte adherence: prevented the aspirin-induced increase in leukocyte adherence
[1]; minutes 60-65, XXXV 130 mg/kg, XXVII 100 mg/kg intragastric, FIG. 20
  Aspirin-induced leukocyte adherence, final time period: suppress aspirin-induced leukocyte adherence
[1]; minutes 60-65, glibenclamide 10 mg/kg i.p., FIG. 20
  Aspirin-induced leukocyte adherence, final time period, after glibenclamide pretreatment: reverse this inhibitor effect
[2]
  COX-1 mRNA expression: suppressed
[3]
  iNOS mRNA expression: suppressed
[4]; Compound XXXV 130 mg/kg, FIG. 4
  MPO activity (granulocyte infiltration): significantly reduced inflammation
[4]; dose-ranging, oral every 12 h for 5 days, highest doses tested, FIG. 2
  MPO activity: significantly reduced (almost in half)
[5]; 0.1 μM
  viability at 72 h, 0.1 µM: 88.4 ± 2.9%
[5]; 1 μM
  viability at 72 h, 1 µM: 87.3 ± 2.3%
[5]; 10 μM
  viability at 72 h, 10 µM: 79.6 ± 1.9%
[6]
  Expression of IL-10 mRNA: did not suppress expression of IL-10 mRNA
[7]; PAG 2 mM, inhibitor of cystathionine γ-lyase
  Effect of PAG (DL-propargylglycine) on H2S generation in liver homogenate: lack of effect
[7]; potassium phosphate buffer pH 7.4, 37° C.
  H2S release in buffer: release H2S spontaneously (in buffer)
[7]; rat liver homogenate 10% (wt/vol)
  H2S release in liver homogenate compared with buffer: greater when in the presence of tissue
[8]
  COX-2 mRNA expression: suppressed
[9]
  Expression of mRNA for pro-inflammatory cytokines and chemokines: suppressed expression of mRNA for several pro-inflammatory cytokines and chemokines
